Measurements from paper PMC7158045 (BMC Plant Biology, 2020).
Counter-ions that a name gives are not always drawn.

Tests used:
Assay in all cases: biochemical
ZmDRIK1-R187-P492 = target: T1, ZmDRIK1-R187-P492 (Zea mays, UniProt C0P4K9); details: read-out: dTm B, DSF, Boltzmann fit, 0.1% DMSO
T1 construct: kinase domain, R187-P492
T1 sequence (C0P4K9 1-514): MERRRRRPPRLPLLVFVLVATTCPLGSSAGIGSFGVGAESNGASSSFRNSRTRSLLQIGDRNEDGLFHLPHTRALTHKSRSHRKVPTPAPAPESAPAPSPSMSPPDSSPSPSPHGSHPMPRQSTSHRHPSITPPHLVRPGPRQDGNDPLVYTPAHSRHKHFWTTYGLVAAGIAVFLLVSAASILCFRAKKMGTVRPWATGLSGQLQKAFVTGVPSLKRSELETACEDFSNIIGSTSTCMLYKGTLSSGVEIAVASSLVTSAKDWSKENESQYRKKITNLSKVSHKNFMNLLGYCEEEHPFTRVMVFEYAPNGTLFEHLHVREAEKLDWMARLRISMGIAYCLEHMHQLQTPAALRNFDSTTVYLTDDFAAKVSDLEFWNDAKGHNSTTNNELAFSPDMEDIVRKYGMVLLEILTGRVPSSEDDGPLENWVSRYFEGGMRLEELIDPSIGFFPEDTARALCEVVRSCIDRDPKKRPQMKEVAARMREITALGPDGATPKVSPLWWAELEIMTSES

[1] = target: T2, ZmDRIK1 (DROUGHT RESPONSIVE INACTIVE KINASE 1), kinase domain (Zea mays, UniProt C0P4K9); details: read-out: dTm B, sheet ZmDRIK1-R187-S514;; DSF, Boltzmann fit, 0.1% DMSO
T2 construct: gene ZEAMMB73_Zm00001d028770; ZmDRIK1-KD R187-S514 (kinase domain)
T2 sequence (C0P4K9 187-514): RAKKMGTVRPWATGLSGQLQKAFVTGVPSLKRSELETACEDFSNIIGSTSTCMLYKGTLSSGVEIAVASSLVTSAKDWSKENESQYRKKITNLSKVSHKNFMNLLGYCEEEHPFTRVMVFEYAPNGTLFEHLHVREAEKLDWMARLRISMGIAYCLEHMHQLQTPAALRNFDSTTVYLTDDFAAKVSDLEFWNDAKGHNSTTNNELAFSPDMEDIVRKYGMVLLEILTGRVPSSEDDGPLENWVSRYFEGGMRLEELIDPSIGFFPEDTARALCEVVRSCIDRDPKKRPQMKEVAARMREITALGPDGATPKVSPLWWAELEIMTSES

ZmDRIK1-K217-S514 = target: T3, ZmDRIK1-K217-S514 (Zea mays, UniProt C0P4K9); details: read-out: dTm B, sheet ZmDRIK1-K217-S514;; DSF, Boltzmann fit, 0.1% DMSO
T3 construct: kinase domain, K217-S514
T3 sequence (C0P4K9 1-514): T1 sequence (C0P4K9 1-514)

ZmDRIK1-K217-P492 = target: T4, ZmDRIK1-K217-P492 (Zea mays, UniProt C0P4K9); details: read-out: dTm B, sheet ZmDRIK1-K217-P492;; DSF, Boltzmann fit, 0.1% DMSO
T4 construct: kinase domain, K217-P492
T4 sequence (C0P4K9 1-514): T1 sequence (C0P4K9 1-514)

Row | Compound | ΔTm at 10 µM (ZmDRIK1-R187-P492) | ΔTm at 10 µM [1] | ΔTm at 10 µM (ZmDRIK1-K217-S514) | ΔTm at 10 µM (ZmDRIK1-K217-P492)
1 | Cc1ccc(-n2nc(C(C)(C)C)cc2NC(=O)Nc2ccc(OCCN3CCOCC3)c3ccccc23)cc1 [BIRB 796 (Doramapimod)] | -0.248 °C | 0.000298 °C | -0.405 °C | -0.873 °C
2 | CN(C)Cc1cccc(N/C(=C2\C(=O)Nc3cc(C(N)=O)ccc32)c2ccccc2)c1 [BIX 02188] | -0.00337 °C | -0.816 °C | -0.0855 °C | -0.147 °C
3 | CN(C)Cc1cccc(N=C(c2ccccc2)c2c(O)[nH]c3cc(C(=O)N(C)C)ccc23)c1 [BIX 02189] | -0.0835 °C | -0.921 °C | -0.274 °C | 0.0556 °C
4 | Nc1cc(C(F)(F)F)c(-c2cc(N3CCOCC3)nc(N3CCOCC3)n2)cn1 [BKM120 (NVP-BKM120)] | -0.326 °C | -0.731 °C | -0.33 °C | -1.39 °C
5 | O=C(NCCCNc1nc(Nc2cccc(NC(=O)N3CCCC3)c2)ncc1I)c1cccs1 [BX-795] | -1.23 °C | -0.711 °C | -1.39 °C | -1.46 °C
6 | O=C(Nc1cccc(Nc2ncc(Br)c(NCCc3cnc[nH]3)n2)c1)N1CCCC1 [BX-912] | -0.165 °C | -0.512 °C | -0.277 °C | -0.986 °C
7 | CCN(CCO)CCCOc1ccc2c(Nc3cc(CC(=O)Nc4cccc(F)c4)[nH]n3)ncnc2c1 [Barasertib (AZD1152-HQPA)] | -0.129 °C | -1.11 °C | -0.253 °C | -0.927 °C
8 | COC(=O)[C@]12CCC(C)(C)C[C@H]1[C@H]1C(=O)C=C3[C@@]4(C)C=C(C#N)C(=O)C(C)(C)[C@@H]4CC[C@@]3(C)[C@]1(C)CC2 [Bardoxolone Methyl] | -1.1 °C | -2.89 °C | -1.7 °C | -4.07 °C
9 | COc1cc(Nc2c(C#N)cnc3cc(OCCCN4CCN(C)CC4)c(OC)cc23)c(Cl)cc1Cl [Bosutinib (SKI-606)] | -0.491 °C | -0.814 °C | -0.473 °C | -1.46 °C
10 | Cc1cc2c(F)c(Oc3ncnn4cc(OC[C@@H](C)O)c(C)c34)ccc2[nH]1 [Brivanib (BMS-540215)] | -0.365 °C | -1.28 °C | -0.0833 °C | -0.796 °C
11 | Cc1cc2c(F)c(Oc3ncnn4cc(OC[C@@H](C)OC(=O)[C@H](C)N)c(C)c34)ccc2[nH]1 [Brivanib Alaninate (BMS-582664)] | -0.504 °C | -1.08 °C | -0.426 °C | -1 °C
12 | O=C(/C=C/c1ccc(O)c(O)c1)c1ccc(O)cc1O [Butein] | 0.882 °C | 0.686 °C | 0.982 °C | 1.78 °C
13 | CC[C@H](Nc1ncnc2[nH]cnc12)c1nc2cccc(F)c2c(=O)n1-c1ccccc1 [CAL-101 (Idelalisib)] | -0.326 °C | -0.612 °C | -0.31 °C | -0.995 °C
14 | O=C(NC(NC(=S)Nc1ccc(F)c([N+](=O)[O-])c1)C(Cl)(Cl)Cl)C(c1ccccc1)c1ccccc1 (stereo not drawn) [CGK 733] | 0.467 °C | 0.221 °C | 0.146 °C | -1.46 °C
15 | O=c1[nH]c2ccc(Cl)cc2c(N[C@@H]2CN3CCC2CC3)c1-c1nc2ccccc2[nH]1 [CHIR-124] | -0.356 °C | -0.602 °C | -0.3 °C | -0.621 °C
16 | Cc1cnc(-c2cnc(NCCNc3ccc(C#N)cn3)nc2-c2ccc(Cl)cc2Cl)[nH]1 [CHIR-99021 (CT99021) HCl] | -0.404 °C | -0.639 °C | -0.494 °C | -0.928 °C
17 | C=CC(=O)Nc1cccc(Nc2nc(Nc3ccc(N4CCN(C(C)=O)CC4)cc3OC)ncc2C(F)(F)F)c1 [CO-1686 (AVL-301)] | -0.278 °C | -0.884 °C | -0.448 °C | -0.85 °C

The remaining lines, values ahead:

Row | ΔTm at 10 µM (ZmDRIK1-R187-P492) | ΔTm at 10 µM [1] | ΔTm at 10 µM (ZmDRIK1-K217-S514) | ΔTm at 10 µM (ZmDRIK1-K217-P492) | Compound
18 | -0.249 °C | -0.676 °C | -0.226 °C | -1.05 °C | CCCCOc1c(C(=O)c2c(F)cc(C)cc2F)c[nH]c2nncc1-2 [BMS-265246]
19 | -0.153 °C | -0.926 °C | -0.486 °C | -0.0998 °C | Cc1ccc2nc(NCCN)c3ncc(C)n3c2c1 [BMS-345541]
20 | -0.284 °C | -0.852 °C | -0.645 °C | -1.5 °C | Cc1cc(N2CCOCC2)cc2[nH]c(-c3c(NC[C@@H](O)c4cccc(Cl)c4)cc[nH]c3=O)nc12 [BMS-536924]
21 | -0.218 °C | -1.06 °C | -0.662 °C | -0.979 °C | CCOc1ccn(-c2ccc(F)cc2)c(=O)c1C(=O)Nc1ccc(Oc2ccnc(N)c2Cl)c(F)c1 [BMS-777607]
22 | 0.213 °C | -1.96 °C | -19 °C | -0.717 °C | Nc1nccc(Oc2ccc(NC(=O)c3c[nH]cc(-c4ccc(F)cc4)c3=O)cc2F)c1Cl [BMS-794833]
23 | -0.328 °C | -0.448 °C | -0.465 °C | -0.718 °C | Cc1nc(NC(=O)N2CCC[C@H]2C(N)=O)sc1-c1ccnc(C(C)(C)C(F)(F)F)c1 [BYL719]
24 | -0.325 °C | -0.523 °C | -0.48 °C | -1.15 °C | NC1(Cc2ccc(Cl)cc2)CCN(c2ncnc3[nH]ccc23)CC1 [CCT128930]
25 | -0.353 °C | -1.56 °C | -0.39 °C | -0.83 °C | CN(C)c1ccc(-c2nc3ncc(Cl)c(N4CCN(CC(=O)Nc5nccs5)CC4)c3[nH]2)cc1 [CCT129202]
26 | -0.157 °C | -1.09 °C | -0.286 °C | -0.814 °C | Cc1cc(CN2CCN(c3c(Br)cnc4nc(-c5ccc(N6CCN(C)CC6)cc5)[nH]c34)CC2)no1 [CCT137690]
27 | -0.956 °C | -0.0221 °C | -0.917 °C | -0.207 °C | COc1cc2ncnc(Oc3cccc(NC(=O)Nc4cc(C(C)(C)C(F)(F)F)on4)c3)c2cc1OC [CEP-32496]
28 | -0.284 °C | -0.54 °C | -0.33 °C | -0.95 °C | CN1CCN(c2cccc(Nc3nc4c(-c5ccc(S(C)(=O)=O)cc5)cccn4n3)c2)CC1 [CEP-33779]
29 | -0.389 °C | -1.61 °C | -0.561 °C | -1.51 °C | Cc1c(NC(=O)c2ccc(C(C)(C)C)cc2)cccc1-c1cn(C)c(=O)c(Nc2ccc(C(=O)N3CCOCC3)cc2)n1 [CGI1746]
30 | -0.223 °C | -0.711 °C | -0.324 °C | -0.608 °C | CS(=O)(=O)N1CCc2c(-c3cnc(N)nc3)nc(N3CCOCC3)nc21 [CH5132799]
31 | -1.55 °C | -10.9 °C | -0.729 °C | -0.472 °C | C=CC(=O)Nc1cccc(Nc2nc(Nc3ccc(Oc4ccnc(C(=O)NC)c4)cc3)ncc2F)c1 [CNX-774]
32 | -0.528 °C | -0.903 °C | -0.646 °C | -1.15 °C | C=CC(=O)Nc1cccc(Nc2nc(Nc3ccc(NC4CN(CCF)C4)cc3OC)ncc2C(F)(F)F)c1 [CNX-2006]
33 | -0.00299 °C | -0.398 °C | 0.216 °C | 0.203 °C | COCCOc1ccc2c(c1)ncn2-c1ccc2cccc(N3CCC(N)CC3)c2n1 [CP-673451]
34 | -0.193 °C | -0.904 °C | -0.357 °C | -1.14 °C | COCC(=O)NC/C=C/c1ccc2ncnc(Nc3ccc(Oc4ccc(C)nc4)c(C)c3)c2c1 [CP-724714]
35 | -0.186 °C | -0.684 °C | -0.263 °C | -1.03 °C | C#Cc1cccc(Nc2ncnc3cc(OC)c(OCCCCCCC(=O)NO)cc23)c1 [CUDC-101]
36 | -0.136 °C | -0.531 °C | -0.228 °C | -1.08 °C | COc1ccc(-c2nc(N3CCOCC3)c3sc(CN(C)c4ncc(C(=O)NO)cn4)cc3n2)cn1 [CUDC-907]
